Data taken from patent publication US6569878B1, “Substituted 4-amino-thiazol-2-yl compounds as cyclin-dependent kinase inhibitors” (Agouron Pharmaceuticals Inc., priority 1997, dated 2003).

Each compound was assayed against T1, complex of human CDK4 and cyclin D3 (Homo sapiens, UniProt P11802) (assay: Inhibition of CDK4/cyclin D retinoblastoma kinase activity (D-type cyclin is D3)). Conditions: superscript a: D-type cyclin is D3; apparent Ki; read-out: Ki CDK 4/D.
T1 construct: made in house; host or cells: insect cells, co-infected with baculovirus
T1 sequence (P11802 whole entry): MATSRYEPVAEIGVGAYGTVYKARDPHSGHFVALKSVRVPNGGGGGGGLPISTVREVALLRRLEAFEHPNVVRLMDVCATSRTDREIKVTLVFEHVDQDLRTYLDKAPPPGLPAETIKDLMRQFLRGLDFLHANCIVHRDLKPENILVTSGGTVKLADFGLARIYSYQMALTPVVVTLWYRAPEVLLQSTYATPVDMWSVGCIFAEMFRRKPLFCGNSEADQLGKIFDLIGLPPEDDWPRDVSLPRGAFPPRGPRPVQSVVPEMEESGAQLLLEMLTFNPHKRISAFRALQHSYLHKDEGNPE
T1 sequence (P30281 whole entry partner): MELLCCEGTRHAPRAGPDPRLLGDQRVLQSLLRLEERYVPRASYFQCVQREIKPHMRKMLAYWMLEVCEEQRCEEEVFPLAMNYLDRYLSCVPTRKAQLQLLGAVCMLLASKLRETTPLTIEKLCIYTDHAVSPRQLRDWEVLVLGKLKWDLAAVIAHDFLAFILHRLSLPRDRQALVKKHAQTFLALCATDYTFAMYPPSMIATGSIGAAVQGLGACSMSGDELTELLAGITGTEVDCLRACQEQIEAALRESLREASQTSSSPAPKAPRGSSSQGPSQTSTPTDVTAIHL
Assay type: biochemical
Protocol: Cyclin-dependent kinase activity was measured by quantifying the enzyme-catalyzed, time-dependent incorporation of radioactive phosphate from [^32P]ATP or [^33P]ATP into a protein substrate. […] Reactions were initiated with enzyme, incubated at 30° C., and terminated after 20 minutes by the addition of ethylenediaminetetraacetic acid (EDTA) to 250 mM. […] Radioactivity was quantified by exposing the dried membranes to a phosphorimager.
Apparent Ki values were measured by assaying enzyme activity in the presence of different inhibitor compound concentrations and subtracting the background radioactivity measured in the absence of enzyme. The kinetic parameters (kcat, Km for ATP) were measured for each enzyme under the usual assay conditions by determining the dependence of initial rates on ATP concentration. Inhibition data were fit to an equation for competitive inhibition using Kaleidagraph (Synergy Software), or were fit to an equation for competitive tight-binding inhibition using the software KineTic (BioKin, Ltd.).
Phosphorylated Rb substrate was captured by microfiltration on a nitrocellulose membrane and quantified using a phosphorimager as described above. For measurement of tight-binding inhibitors, the enzyme complex concentration was lowered to 5 nM, and the assay duration was extended to 60 minutes, during which the time-dependence of product formation was linear.
`CN(C)c1ccc(Nc2nc(N)c(C(=O)c3ccc(F)cc3)s2)cc1` [I(7)] gave a Ki of ~1.5 µM.
In the case of `Nc1nc(Nc2ccccc2)sc1C(=O)c1ccc(F)cc1` [I(11)], the Ki is reported as 0.52 µM.
Work on `Nc1nc(NC2CCCCC2)sc1C(=O)c1ccccc1[N+](=O)[O-]` [C(14), (4-Amino-2-cyclohexylamino-thiazol-5-yl)-(2-nitro-phenyl)-methanone] yielded a Ki of 0.057 µM.
With `CC(=O)c1ccc(Nc2nc(N)c(C(=O)c3sccc3C)s2)cc1` [C(44), 1-{4-[4-Amino-5-(3-methyl-thiophene-2-carbonyl)-thiazol-2-ylamino]-phenyl}-ethanone] the Ki was ~0.128 µM.
In the case of `CCN(CC)c1ccc(Nc2nc(N)c(C(=O)c3ccccc3[N+](=O)[O-])s2)cc1` [C(17), [4-Amino-2-(4-diethylamino-phenylamino)-thiazol-5-yl]-(2-nitro-phenyl)-methanone], the Ki is reported as 0.072 µM.
With `COC(=O)c1cccc(C(=O)c2sc(Nc3cccc([N+](=O)[O-])c3)nc2N)c1` [I(17)] the Ki was < 1 µM.
Compound `Nc1nc(NC2CCCCC2)sc1C(=O)c1ccc([N+](=O)[O-])cc1` [I(9)] has a Ki of 2.5 µM.
In the case of `Nc1nc(Nc2ccccc2)sc1C(=O)c1ccc([N+](=O)[O-])cc1` [A(2), (4-Amino-2-phenylamino-thiazol-5-yl)-(4-nitrophenyl)-methanone], the Ki is reported as ~0.3 µM.
In the case of `Nc1nc(Nc2ccc3c(c2)OCO3)sc1C(=O)c1ccccc1[N+](=O)[O-]` [C(11), [4-Amino-2-(benzo[1,3]dioxol-5-yl-amino)-thiazol-5-yl]-(2-nitro-phenyl)-methanone], the Ki is reported as 0.13 µM.
`N#Cc1cccc(Nc2nc(N)c(C(=O)c3ccccc3[N+](=O)[O-])s2)c1` [C(22)] was tested, and the Ki was 0.067 µM.
Work on `CN(C)c1ccc(Nc2nc(N)c(C(=O)c3ccccc3N)s2)cc1` [D(3), [4-Amino-2-(4-dimethylamino-phenylamino)-thiazol-5-yl]-(2-amino-phenyl)-methanone] yielded a Ki of 0.38 µM.
In the case of `COCCCNc1nc(N)c(C(=O)c2ccccc2[N+](=O)[O-])s1` [C(23), [4-Amino-2-(3-methoxy-propylamino)-thiazol-5-yl]-(2-nitro-phenyl)-methanone], the Ki is reported as 0.33 µM.
`CC(C)c1ccc(Nc2nc(N)c(C(=O)c3ccccc3[N+](=O)[O-])s2)cc1` [C(15), [4-Amino-2-(4-isopropyl-phenylamino)-thiazol-5-yl]-(2-nitro-phenyl)-methanone] showed a Ki of 0.057 µM.
In the case of `Cn1cccc1C(=O)c1sc(Nc2ccc3nc[nH]c3c2)nc1N` [C(43), [4-Amino-2-(1H-benzimidazol-5-ylamino)-thiazol-5-yl]-(1-methyl-1H-pyrrol-2-yl)-methanone], the Ki is reported as 0.315 µM.
Work on `Nc1nc(NCCc2ccc(Cl)cc2)sc1C(=O)c1ccccc1[N+](=O)[O-]` [C(16), {4-Amino-2-[2-(4-chloro-phenyl)-ethylamino]-thiazol-5-yl}-(2-nitro-phenyl)-methanone] yielded a Ki of 0.17 µM.
For `COc1ccc(Nc2nc(N)c(C(=O)c3[nH]cnc3C)s2)cc1` [C(40), [4-Amino-2-(4-methoxy-phenylamino)-thiazol-5-yl]-(4-methyl-1H-imidazol-5-yl)-methanone], the Ki was 3.84 µM.
With `Nc1nc(Nc2cccnc2)sc1C(=O)c1ccc(Cl)cc1Cl` [C(28), [4-Amino-2-(pyridin-3-ylamino)-thiazol-5-yl]-(2,4-dichloro-phenyl)-methanone] the Ki was 0.24 µM.
For `Nc1nc(Nc2ccc(Sc3ncc(C(F)(F)F)cc3Cl)cc2)sc1C(=O)c1ccccc1[N+](=O)[O-]` [C(25), {4-Amino-2-[4-(2-chloro-5-trifluoromethyl-pyridin-2-yl sulfanyl)-phenylamino]-thiazol-5-yl}-(2-nitro-phenyl)-methanone], the Ki was 1.3 µM.
`COc1ccccc1C(=O)c1sc(Nc2ccc3nc[nH]c3c2)nc1N` [C(32), [4-Amino-2-(1H-benzoimidazol-6-ylamino)-thiazol-5-yl]-(2-methoxy-phenyl)-methanone] gave a Ki of 0.094 µM.
`Cc1c(C(=O)c2sc(Nc3ccc4nc[nH]c4c3)nc2N)sc2ccc(Cl)cc12` [C(10), [4-Amino-2-(1H-benzoimidazol-6-yl-amino)-thiazol-5-yl]-(5-chloro-3-methyl-benzo[b]thiophen-2-yl)-methanone] gave a Ki of 0.68 µM.
`Nc1nc(Nc2ccc([N+](=O)[O-])cc2)sc1C(=O)c1ccccc1[N+](=O)[O-]` [C(13), [4-Amino-2-(4-nitro-phenylamino)-thiazol-5-yl]-(2-nitro-phenyl)-methanone] showed a Ki of 0.051 µM.
Work on `Cc1c(C(=O)c2sc(Nc3ccc(N4CCOCC4)cc3)nc2N)ncn1C` [C(77), [4-Amino-2-(4-morpholin-4-yl-phenylamino)-thiazol-5-yl]-(1,5-dimethyl-1H-imidazol-4-yl)-methanone] yielded a Ki of 3 µM.
Compound `CCN(CC)c1ccc(Nc2nc(N)c(C(=O)c3ccc([N+](=O)[O-])cc3)s2)cc1` [C(18), [4-Amino-2-(4-diethylamino-phenylamino)-thiazol-5-yl]-(4-nitro-phenyl)-methanone] has a Ki of 12.9 µM.
`Nc1nc(NC2CCCCC2)sc1C(=O)c1ccc(F)cc1` [I(8)] was tested, and the Ki was 4.3 µM.
`Cc1ccc(Nc2nc(N)c(C(=O)c3ccc(C)cc3C)s2)cc1` [A(14), [4-Amino-2-(p-tolylamino)-thiazol-5-yl]-(2,4-dimethylphenyl)-methanone] was tested, and the Ki was 0.18 µM.
Work on `Cc1ccc(Nc2nc(N)c(C(=O)c3ccccc3)s2)cc1` [I(23)] yielded a Ki of 1.5 µM.
`Nc1nc(Nc2ccc(S(N)(=O)=O)cc2)sc1C(=O)c1ccc(C(=O)O)cc1` [E(2), 4-[4-Amino-2-(4-sulfamoyl-phenylamino)-thiazole-5-carbonyl]-benzoic Acid] was tested, and the Ki was 1.17 µM.
`Nc1ccc(Nc2nc(N)c(C(=O)c3ccccc3)s2)cc1` [D(4), [4-Amino-2-(4-amino-phenylamino)-thiazol-5-yl]-phenyl-methanone] was tested, and the Ki was 0.8 µM.
With `COc1ccc(C(=O)c2sc(Nc3ccc(OCc4ccccc4)cc3)nc2N)cc1` [C(2), [4-Amino-2-(4-benzyloxy-phenylamino)-thiazol-5-yl]-(4-methoxy-phenyl)-methanone] the Ki was > 5 µM.
With `COc1cc(C(=O)c2sc(Nc3ccccc3)nc2N)cc(OC)c1OC` [I(16)] the Ki was 1.88 µM.
Work on `COC(=O)c1cccc(Nc2nc(N)c(C(=O)c3cccc(OC)c3)s2)c1` [I(13)] yielded a Ki of 2.4 µM.
For `Cc1c(C(=O)c2sc(Nc3ccc(N(C)C)cc3)nc2N)sc2ccc(Cl)cc12` [C(9)], the Ki was 0.74 µM.
`Nc1nc(Nc2cccnc2)sc1C(=O)c1ccccc1[N+](=O)[O-]` [A(11), [4-Amino-2-(pyridin-3-ylamino)-thiazol-5-yl]-(2-nitro-phenyl)-methanone] was tested, and the Ki was 0.13 µM.
`Nc1nc(Nc2cccnc2)sc1C(=O)c1ccc2ccccc2c1` [C(30), [4-Amino-2-(pyridin-3-ylamino)-thiazol-5-yl]-naphthalen-2-yl-methanone] showed a Ki of 1.4 µM.
`COc1ccc(C(=O)c2sc(Nc3ccc(C)cc3)nc2N)c(OC)c1` [A(13), [4-Amino-2-(p-tolylamino)-thiazol-5-yl]-(2,4-dimethoxyphenyl)-methanone] was tested, and the Ki was 0.25 µM.
With `Nc1ccc(C(=O)c2sc(Nc3ccccc3)nc2N)cc1` [D(2), (4-Amino-phenyl)-(4-amino-2-phenylamino-thiazol-5-yl)-methanone] the Ki was > 5 µM.
`COc1ccccc1C(=O)c1sc(NCCc2ccc(Cl)cc2)nc1N` [C(27), {4-Amino-2-[2-(4-chloro-phenyl)-ethylamino]-thiazol-5-yl}-(2-methoxy-phenyl)-methanone] showed a Ki of 1.02 µM.
Compound `Cc1c(C(=O)c2sc(Nc3ccc(N(C)C)cc3)nc2N)sc2ccccc12` [C(7), [4-Amino-2-((4-dimethylaminophenyl)amino)-thiazol-5-yl]-(3-methyl-benzo[b]thiophen-2-yl)-methanone] has a Ki of 0.51 µM.
For `COc1ccccc1C(=O)c1sc(Nc2cccnc2)nc1N` [C(29), [4-Amino-2-(pyridin-3-ylamino)-thiazol-5-yl]-(2-methoxy-phenyl)-methanone], the Ki was 0.357 µM.
In the case of `COC(=O)c1cccc(Nc2nc(N)c(C(=O)c3ccccc3OC)s2)c1` [C(26), Methyl 3-[4-Amino-5-(2-methoxy-benzoyl)-thiazol-2-ylamino]-benzoate], the Ki is reported as 0.33 µM.
`COC(=O)c1cccc(Nc2nc(N)c(C(=O)c3ccc4ccccc4c3)s2)c1` [I(15)] gave a Ki of 0.44 µM.
With `Nc1nc(Nc2ccc(I)cc2)sc1C(=O)c1ccccc1[N+](=O)[O-]` [A(7), [4-Amino-2-(4-iodo-phenylamino)-thiazol-5-yl]-(2-nitro-phenyl)-methanone] the Ki was 0.31 µM.

Same assay, conditions: superscript a: D-type cyclin is D3; μM; read-out: Ki CDK 4/D
For `CCC(Nc1nc(N)c(C(=O)c2ccc([N+](=O)[O-])cc2)s1)C(=O)OC` (stereo in doubt) [C(6), Methyl 2(S)-[4-Amino-5-(4-nitro-benzoyl)-thiazol-2-ylamino]-butyrate], the Ki was > 10 µM.
For `COc1ccc(CNc2nc(N)c(C(=O)c3cc(C)sc3C)s2)cc1` [C(68), [4-Amino-2-(4-methoxy-benzylamino)-thiazol-5-yl]-(2,5-dimethylthiophen-3-yl)-methanone], the Ki was > 30 µM.
`COc1ccc(C(=O)Nc2nc(N)c(C(=O)c3ccccc3[N+](=O)[O-])s2)cc1` [I(18)] was tested, and the Ki was > 25 µM.
In the case of `Nc1nc(Nc2ccc(S(N)(=O)=O)cc2)sc1C(=O)c1ccc(OC(=O)c2ccccc2)cc1` [C(39)], the Ki is reported as > 100 µM.
With `Nc1nc(Nc2ccc([N+](=O)[O-])cc2)sc1C(=O)c1ccccc1` [A(8), [4-Amino-2-(4-nitro-phenylamino)-thiazol-5-yl]-phenyl-methanone] the Ki was > 25 µM.
For `COC(=O)c1cccc(Nc2nc(N)c(C(=O)c3ccc(Br)cc3)s2)c1` [I(14)], the Ki was > 50 µM.
With `COc1ccc(C(=O)c2sc(Nc3ccccc3)nc2N)cc1` [I(10)] the Ki was > 20 µM.
